The results in this text go back to patent publication US20240423977A1, “FIVE-MEMBERED RING-FUSED SIX-MEMBERED RING COMPOUND, PREPARATION METHOD THEREFOR, AND PHARMACEUTICAL COMPOSITION AND USE THEREOF” (HANGZHOU POLYMED BIOPHARMACEUTICALS, INC., priority 2022, published 2024).

Each structure is given as a SMILES string. Bounds are passed on as bounds.

Chain of kinase IRAK4 (Q9NWZ3 whole entry): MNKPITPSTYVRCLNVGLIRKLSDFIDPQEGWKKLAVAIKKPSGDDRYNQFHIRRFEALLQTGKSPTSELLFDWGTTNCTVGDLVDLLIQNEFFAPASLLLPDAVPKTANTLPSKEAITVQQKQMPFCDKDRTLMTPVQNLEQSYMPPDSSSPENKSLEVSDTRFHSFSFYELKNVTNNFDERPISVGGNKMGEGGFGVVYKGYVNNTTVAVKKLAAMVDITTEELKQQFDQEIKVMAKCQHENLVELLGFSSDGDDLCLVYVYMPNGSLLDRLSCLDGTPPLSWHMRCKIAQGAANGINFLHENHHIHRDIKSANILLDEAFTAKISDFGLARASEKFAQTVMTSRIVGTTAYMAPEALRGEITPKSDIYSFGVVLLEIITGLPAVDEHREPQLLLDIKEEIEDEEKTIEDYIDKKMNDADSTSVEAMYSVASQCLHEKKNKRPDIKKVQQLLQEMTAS
Chain of IRAK4 protein in THP-1 cells (Q9NWZ3 whole entry): as above

In one assay the target is kinase IRAK4 (Homo sapiens (Human), UniProt Q9NWZ3). The assay can be described thus: Inhibitory effects of compounds on kinase activity (fluorescence microfluidic mobility detection, competitive with ATP). The following applies: Table 1; class symbols; IRAK4 6 nM, ATP 10 μM. The assay is classed as biochemical. As to the method:
Based on an experimental method of fluorescence microfluidic mobility detection, an IC50 value of competitive binding of kinase IRAK4 to ATP by the compounds was determined. The initial detection concentration of the compounds was 10 μM, diluted 4-fold gradient down to […], and tested in duplicate. Among them, commercial staurosporine was the standard control substance in this experiment.
1) IRAK4 kinase was dissolved in kinase buffer (50 mM HEPES pH 7.5, 10 mM MgCl2, 2 mM DTT and 0.01% Brij-35) to a final concentration of 6 nM.
2) The substrate peptide FAM-P8 and ATP were dissolved in the above kinase buffer. The final concentrations of the IRAK4 substrate peptide FAM-P8 and ATP were 3 μM and 10 μM respectively.
3) Dilution of the compounds: the compound was first diluted to 50 μM, and then diluted down with a 4-fold gradient of DMSO. The solution without the compound and kinase is used as a blank control, corresponding to the “minimum value” shown below; and the solution without the compound but with kinase, adenosine 5′-triphosphate disodium salt hydrate, DMSO and buffer is used as a positive control, corresponding to the “maximum value” shown below. 4) Kinase reaction and termination: 10 μL of kinase buffer was added to a 384-well plate containing 5 μL of the compound to be tested, and incubated at room temperature for 10 minutes. Another 10 μL of buffer containing the substrate peptide and adenosine 5′-triphosphate disodium salt hydrate was added to the 384-well plate. After incubation at 28° C. for one hour, 25 μL stop solution (100 mM HEPES pH 7.5, 50 mM EDTA, 0.2% Coating Reagent #3 and 0.015% Brij-35) was added to each well to terminate the reaction.
5) Data reading: the CaliperEZ Reader II instrument was used to read the conversion rate data. Conditions: downstream voltage −500V, upstream voltage −2250V, base pressure −0.5 PSI, and screening pressure −1.2 PSI.
6) Data calculation: the conversion rate data was copied from CaliperEZ Reader II and converted into inhibition rate data. The calculation formula is as follows:
[formula] • IC50 values were fitted using XLFit excel add-in version 5.4.0.8,
Y=Bottom+(Top−Bottom)/(1+(IC50/X)^HillSlope) Fitting formula: […]
Regarding `CC(C)(O)c1cc2nn(C3CCN(CC(=O)N4CCN(c5ccc6c(c5)C(=O)N(C5CCC(=O)NC5=O)C6=O)CC4)CC3)cc2cc1NC(=O)c1cccc(C(F)(F)F)n1` (centres unmarked) [II-6], the IC50 was under 100 nM.

Compound `COc1cc2nn(C3CCN(C(=O)CN4CCN(c5ccc6c(c5)C(=O)N(C5CCC(=O)NC5=O)C6=O)CC4)CC3)cc2cc1NC(=O)c1cccc(C(F)(F)F)n1` (centres unmarked) [II-4] returned a half-inhibitory concentration (IC50) of under 100 nM.

The compound `COc1cc2nn(C3CC4(CCN(CC(=O)N5CCN(c6ccc7c(c6)C(=O)N(C6CCC(=O)NC6=O)C7=O)CC5)CC4)C3)cc2cc1NC(=O)c1cccc(C(F)(F)F)n1` (centres unmarked) [Compound I-2] came in with an IC50 of under 100 nM.

Staying with this assay, now noted: Table 2; IRAK4 6 nM, ATP 10 μM, substrate FAM-P8 3 μM.
As to `COc1cc2nn(C3CC4(CCN(C(=O)C5CCN(c6ccc7c(c6)C(=O)N(C6CCC(=O)NC6=O)C7=O)CC5(F)F)CC4)C3)cc2cc1NC(=O)c1cccc(N2CCOCC2)n1` (centres unmarked) [Compound I-55], the 50% inhibitory concentration (IC50) turned out to be 34.3 nM.

Regarding `COc1cc2nn(C3CC4(CCN(C(=O)C5CCN(c6ccc7c(c6)C(=O)N(C6CCC(=O)NC6=O)C7=O)CC5)CC4)C3)cc2cc1NC(=O)c1cccc(C)n1` (centres unmarked) [Compound I-38], the IC50 worked out at 14.1 nM.

`COc1cc2nn(C3CC4(CCN(C(=O)C5CCN(c6ccc7c(c6)C(=O)N([C@@H]6CCC(=O)NC6=O)C7=O)CC5)CC4)C3)cc2cc1NC(=O)c1cccc(C(F)(F)F)n1` [Compound I-58]: the concentration for half-maximal inhibition (IC50) came to 35.1 nM. Compared with the last compound, the IC50 is about 2.5-fold higher.

On to `COc1cc2nn(C3CC4(CCN(C(=O)C5CCN(c6ccc7c(c6)CN(C6CCC(=O)NC6=O)C7=O)CC5)CC4)C3)cc2cc1NC(=O)c1cccc(C(F)(F)F)n1` (centres unmarked) [Compound I-7], for which the 50% inhibitory concentration (IC50) was 8.1 nM. This IC50 lies about 4.3-fold lower than the previous one.

Compound `COc1cc2nn(C3CC4(CCN(C(=O)C5(F)CCN(c6ccc7c(c6)C(=O)N(C6CCC(=O)NC6=O)C7=O)CC5)CC4)C3)cc2cc1NC(=O)c1cccc(C(F)(F)F)n1` (centres unmarked) [Compound I-34] came in with an IC50 of 39.7 nM.

In turn, `COc1cc2nn(C3CC4(CCN(C(=O)C5CCN(c6ccc7c(c6)C(=O)N(c6ccc(=O)[nH]n6)C7=O)CC5)CC4)C3)cc2cc1NC(=O)c1cccc(C(F)(F)F)n1` [Compound I-43] came in with a concentration for half-maximal inhibition (IC50) of 20.7 nM.

`COc1cc2nn(C3CCN(CC(=O)N4CCN(c5ccc6c(c5)CN(C5CCC(=O)NC5=O)C6=O)CC4)CC3)cc2cc1NC(=O)c1cccc(C(F)(F)F)n1` (centres unmarked) [II-7] displayed an IC50 of 3.57 nM.

On to `CC(C)(O)c1cc2nn(C3CCN(CC(=O)N4CCN(c5ccc6c(c5)C(=O)N(C5CCC(=O)NC5=O)C6=O)CC4)CC3)cc2cc1NC(=O)c1cccc(C(F)(F)F)n1` (centres unmarked) [II-6], for which the IC50 came out at 8.2 nM.

The compound `COc1cc2nn(C3CCN(C(=O)CN4CCN(c5ccc6c(c5)C(=O)N(C5CCC(=O)NC5=O)C6=O)CC4)CC3)cc2cc1NC(=O)c1cccc(C(F)(F)F)n1` (centres unmarked) [II-4] returned an IC50 of 20 nM.

In the case of `COc1cc2nn(C3CC4(CCN(CC(=O)N5CCN(c6ccc7c(c6)C(=O)N(C6CCC(=O)NC6=O)C7=O)CC5)CC4)C3)cc2cc1NC(=O)c1cccc(C(F)(F)F)n1` (centres unmarked) [Compound I-2], the concentration for half-maximal inhibition (IC50) came to 11 nM.

Another assay addresses IRAK4 protein in THP-1 cells (Homo sapiens (Human), UniProt Q9NWZ3). The assay can be described thus: PROTAC-induced IRAK4 protein degradation in THP-1 cells (Western Blot). The assay is classed as cell-based. The settings on record: Western blotting, 1 μM, 24 hours. As to the method: 2.1 Based on the experimental method of Western Blot, specific antibodies were used to stain the THP-1 cell samples treated by gel electrophoresis, and the degrading activity of the compounds on the IRAK4 protein in THP-1 cells was determined by analyzing the position and depth of staining. The concentrations of compound for the detection included 0 μM, 0.3 μM, 1 μM and 3 μM, and the cells were treated by the compound for 8 hours, 16 hours, 24 hours, and 48 hours. Glyceraldehyde-3-phosphate dehydrogenase (GAPDH) is an internal reference protein in this experiment.
Electrophoresis buffer: 50 mL MOPS SDS Running Buffer (20×) and 50 mL 20×TBS Tween-20 buffer were diluted with deionized water to 1 L as the electrophoresis buffer;
5% skim milk (w/v): 2.5 g skim milk was diluted with 50 mL 1×TBS Tween-20 buffer to prepare 5% skim milk;
5% BSA (w/v): 2.5 g BSA was diluted with 50 mL 1×TBS Tween-20 buffer to prepare 5% BSA;
Anti-IRAK4 antibody was diluted with 5% BSA at 1:1000 into a primary antibody working solution;
Goat Anti-Rabbit IgG H&L (HRP) was diluted with 5% BSA at 1:2000 into a second antibody working solution; and
Goat Anti-Mouse IgG H&L (HRP) was diluted with 5% BSA at 1:2000 into a second antibody working solution.
THP-1 cells were plated in a 6-well plate at a density of 1.5×10^6 cells per ml and incubated for 2 hours in a cell culture incubator under 37° C. and 5% CO2. The compound was diluted with DMSO to 0.6 mM, 0.2 mM and 0.06 mM respectively. 10 μL of compound solution was added to the corresponding wells, and continued to incubate in the incubator for 16 hours, 24 hours and 48 hours respectively. The compound-treated THP-1 cells in the well were collected, added with 120 μL of RIPA lysate containing protease inhibitor, Phosphatase Inhibitor Cocktail 2 and Phosphatase Inhibitor Cocktail 3, lysed on wet ice for 30 minutes, and then the cells lysate was centrifuged at a high speed and a low temperature for 5 minutes to collect the supernatant. The protein concentration of the cell sample was determined according to the instructions in the Pierce™ BCA Protein Assay Kit.
The concentration of the sample was adjusted to be consistent using lysis buffer and NuPAGE® LDS sample buffer containing 1M DTT. The samples were heated at 95° C. for 5 minutes and centrifuged at a low temperature and at a high speed. 20 μL of the prepared protein sample and 4 μL of PageRuler Prestained Protein Ladder were added into the gel well for running at 80V voltage for 0.5 hours, then the voltage was adjusted to 120V for further running for 1.5 hours. The gel was removed and the proteins in the gel were transferred to the IBlotTM 2 transfer membrane set at 20V. After successful transfer, bands at 65 kDa-40 kDa and 40 kDa-30 kDa were cut respectively. The membranes were blocked with 5% skim milk for 1 hour at room temperature. The membranes were washed three times with 1× concentration of TBST, then incubated with IRAK4 antibody working solution overnight at 4° C. The IRAK4 antibody working solution was discarded, and the membranes were washed three times with 1×concentration of TBST, and incubated with Goat Anti-Rabbit IgG H&L (HRP) working solution and Goat Anti-Mouse IgG H&L (HRP) working solution at room temperature. After 1 hour of incubation, the antibody working solution was discarded and the membranes were washed three times with 1× concentration of TBST. According to the instructions of the kit SuperSignal™ West Femto Maximum Sensitivity Substrate, the reagents in the kit were mixed in equal volume proportions to prepare a luminescent liquid mixture. The membranes were incubated for 1 minute, then removed for exposure.
The results of Western blotting 24 hours after administration of the compounds with a concentration of 1 μM were shown in Table 3: […]
With `CC(C)(O)c1cc2nn(C3CCN(CC(=O)N4CCN(c5ccc6c(c5)C(=O)N(C5CCC(=O)NC5=O)C6=O)CC4)CC3)cc2cc1NC(=O)c1cccc(C(F)(F)F)n1` (centres unmarked) [II-6], the “IRAK4 degradation rate 24 hours after administration of the compounds with a concentration of 1 μM” value (“IRAK4 degradation rate 24 hours” below) is given as 75~100%.

For the compound `COc1cc2nn(C3CCN(C(=O)CN4CCN(c5ccc6c(c5)C(=O)N(C5CCC(=O)NC5=O)C6=O)CC4)CC3)cc2cc1NC(=O)c1cccc(C(F)(F)F)n1` (centres unmarked) [II-4], the “IRAK4 degradation rate 24 hours” value is given as 50~75%.

As to `COc1cc2nn(C3CC4(CCN(CC(=O)N5CCN(c6ccc7c(c6)C(=O)N(C6CCC(=O)NC6=O)C7=O)CC5)CC4)C3)cc2cc1NC(=O)c1cccc(C(F)(F)F)n1` (centres unmarked) [Compound I-2], the “IRAK4 degradation rate 24 hours” value is listed as 75~100%.

The same assay, now with this note: concentration that degraded 50% of IRAK4, Western blotting, 24 hours after administration.
`COc1cc2nn(C3CC4(CCN(C(=O)C5CCN(c6ccc7c(c6)C(=O)N(C6CCC(=O)NC6=O)C7=O)CC5(F)F)CC4)C3)cc2cc1NC(=O)c1cccc(N2CCOCC2)n1` (centres unmarked) [Compound I-55] yielded a DC50 of 14.6 nM.

Take `COc1cc2nn(C3CC4(CCN(C(=O)C5CCN(c6ccc7c(c6)C(=O)N(C6CCC(=O)NC6=O)C7=O)CC5)CC4)C3)cc2cc1NC(=O)c1cccc(C)n1` (centres unmarked) [Compound I-38]: half-maximal degradation (DC50) was put at 2.61 nM. Against the preceding compound, the DC50 is about 5.6-fold lower.

Take `COc1cc2nn(C3CC4(CCN(C(=O)C5CCN(c6ccc7c(c6)C(=O)N([C@@H]6CCC(=O)NC6=O)C7=O)CC5)CC4)C3)cc2cc1NC(=O)c1cccc(C(F)(F)F)n1` [Compound I-58]: the DC50 worked out at 2.67 nM.

`COc1cc2nn(C3CC4(CCN(C(=O)C5CCN(c6ccc7c(c6)CN(C6CCC(=O)NC6=O)C7=O)CC5)CC4)C3)cc2cc1NC(=O)c1cccc(C(F)(F)F)n1` (centres unmarked) [Compound I-7] gave a DC50 of 3.6 nM.

The compound `COc1cc2nn(C3CC4(CCN(C(=O)C5(F)CCN(c6ccc7c(c6)C(=O)N(C6CCC(=O)NC6=O)C7=O)CC5)CC4)C3)cc2cc1NC(=O)c1cccc(C(F)(F)F)n1` (centres unmarked) [Compound I-34] returned a 50% degradation concentration (DC50) of 22.7 nM.

As for `COc1cc2nn(C3CC4(CCN(C(=O)C5CCN(c6ccc7c(c6)C(=O)N(c6ccc(=O)[nH]n6)C7=O)CC5)CC4)C3)cc2cc1NC(=O)c1cccc(C(F)(F)F)n1` [Compound I-43], the 50% degradation concentration (DC50) was over 1000 nM.

`COc1cc2nn(C3CCN(CC(=O)N4CCN(c5ccc6c(c5)CN(C5CCC(=O)NC5=O)C6=O)CC4)CC3)cc2cc1NC(=O)c1cccc(C(F)(F)F)n1` (centres unmarked) [II-7] yielded a half-maximal degradation concentration (DC50) of 2.2 nM.

`CC(C)(O)c1cc2nn(C3CCN(CC(=O)N4CCN(c5ccc6c(c5)C(=O)N(C5CCC(=O)NC5=O)C6=O)CC4)CC3)cc2cc1NC(=O)c1cccc(C(F)(F)F)n1` (centres unmarked) [II-6] had a half-maximal degradation concentration (DC50) of 9.99 nM. This DC50 is about 4.5-fold higher than that of the compound before.

In turn, `COc1cc2nn(C3CCN(C(=O)CN4CCN(c5ccc6c(c5)C(=O)N(C5CCC(=O)NC5=O)C6=O)CC4)CC3)cc2cc1NC(=O)c1cccc(C(F)(F)F)n1` (centres unmarked) [II-4] registered a half-maximal degradation concentration (DC50) of 12.4 nM.

On to `COc1cc2nn(C3CC4(CCN(CC(=O)N5CCN(c6ccc7c(c6)C(=O)N(C6CCC(=O)NC6=O)C7=O)CC5)CC4)C3)cc2cc1NC(=O)c1cccc(C(F)(F)F)n1` (centres unmarked) [Compound I-2], for which the half-maximal degradation concentration (DC50) was 4.41 nM.
